How the values were obtained:
albumin [1] = molecular target: T1, albumin (Homo sapiens, UniProt P02768); assay: Measurement of albumin glycation using spectrofluorimetric method (Ex/Em 370/440 nm); format: biochemical; conditions: 5 mM; albumin incubated with glucose 0.5 M for 4 weeks
Method: Glycation of protein in vitro was carried out according to following scheme: • 50 mg of protein (albumin, myoglobin) was dissolved in 1 ml 0.01M PBS (pH 7.4), containing D-glucose (0.1; 0.3; 0.5; 1M) and 5 mM toluene (as a bacteriostatic compound). The examined drug or aminoguanidine hydrochloride were added to samples at final concentrations from 0.1 mM to 5 mM. Samples were incubated at 37° C., in dark, for a specified period of time (1, 2, 3 and 4 weeks). Then, the protein was concentrated by ultrafiltration (30 min at 4000×g, 16° C.) with Amicon 50 cartridges (Millipore) with cut-off of 50 kDa (in case of albumin) or Amicon 10 cartridges with cut-off of 10 kDa (in case of myoglobin). The concentrated protein samples were dialyzed for 24 hrs, against distilled water, using dialysis membranes: Spectra Por (cut-off of 50 kDa for albumin and cut-off of 12-14 kDa for myoglobin). Then the samples were lyophilized overnight. • Control samples were prepared as above except of addition of glucose (control I) or drugs (control II). Sugar residues are characterized by fluorescence—Ex/Em 370/440 nm The action of drug is expressed by a suppression of the intensity of fluorescence. Lyophylized protein samples were dissolved in 0.01M PBS (pH 7.4), at concentration 0.5 mg protein/1 ml of buffer. […] Fluorescence intensity was measured at 440 nm emission upon excitation of 370 nm.

[2] = Glycaemia in streptozotocin-induced diabetes model; format: in vivo, Sprague-Dawley rats; conditions: rats injected with STZ; 354±40 mg/kg/day in drinking water, 8 weeks
Method: (§1) All experimental studies using animals were approved by an Ethical Committee at the Jagiellonian University. Diabetes model was established by the single, intraperitoneal administration of streptozotocin (STZ, 75 mg/kg in citrate buffer, pH 4.5) to three-month Sprague-Dawley rats. In order to maintain glycaemia between 350 and 450 mg/dL, animals were treated twice a week by insulin (neutral protamine Hagedorn, NPH, 2-3 U/300 g of body weight).
(§2) The rats were divided into three groups (each one of n=4 animals): “control” group—animals injected with citrate buffer only (sham animals), “diabetes” group—STZ treated animals and “STZ+drug” group—STZ-rats treated with examined drug (354±40 mg/kg/day in drinking water). The experiment lasted 8 weeks. Animals were anesthetized and killed, and both the tissue samples (kidneys, heart, lungs, brain) as well as blood samples were harvested. The presence of AGEs was evaluated by immunohistochemistry, with use of specific antibodies (Abcam, USA).

AGEs = assay: Immunohistochemistry for AGEs in renal glomeruli, streptozotocin-induced diabetes model; format: in vivo, Sprague-Dawley rats; conditions: STZ rats; 354±40 mg/kg/day in drinking water, 8 weeks; kidney
Method: as §1, §2

albumin [3] = molecular target: T1, albumin; assay: Measurement of glycation by mass spectrometry (gain of molecular weight of albumin incubated with glucose); format: biochemical
Method: Glycation of protein in vitro was carried out according to following scheme: • 50 mg of protein (albumin, myoglobin) was dissolved in 1 ml 0.01M PBS (pH 7.4), containing D-glucose (0.1; 0.3; 0.5; 1M) and 5 mM toluene (as a bacteriostatic compound). The examined drug or aminoguanidine hydrochloride were added to samples at final concentrations from 0.1 mM to 5 mM. Samples were incubated at 37° C., in dark, for a specified period of time (1, 2, 3 and 4 weeks). Then, the protein was concentrated by ultrafiltration (30 min at 4000×g, 16° C.) with Amicon 50 cartridges (Millipore) with cut-off of 50 kDa (in case of albumin) or Amicon 10 cartridges with cut-off of 10 kDa (in case of myoglobin). The concentrated protein samples were dialyzed for 24 hrs, against distilled water, using dialysis membranes: Spectra Por (cut-off of 50 kDa for albumin and cut-off of 12-14 kDa for myoglobin). Then the samples were lyophilized overnight. • Control samples were prepared as above except of addition of glucose (control I) or drugs (control II). The method is based on a measurement of protein molecular weight (albumin, myoglobin), which is increased in proportion to the number of bound sugar moieties. […] Based on obtained MS spectra, average protein molecular weight was calculated using BioWorks 1.0 software (Finnigan, San Jose, USA).

T1 sequence (P02768 25-609, species assumed): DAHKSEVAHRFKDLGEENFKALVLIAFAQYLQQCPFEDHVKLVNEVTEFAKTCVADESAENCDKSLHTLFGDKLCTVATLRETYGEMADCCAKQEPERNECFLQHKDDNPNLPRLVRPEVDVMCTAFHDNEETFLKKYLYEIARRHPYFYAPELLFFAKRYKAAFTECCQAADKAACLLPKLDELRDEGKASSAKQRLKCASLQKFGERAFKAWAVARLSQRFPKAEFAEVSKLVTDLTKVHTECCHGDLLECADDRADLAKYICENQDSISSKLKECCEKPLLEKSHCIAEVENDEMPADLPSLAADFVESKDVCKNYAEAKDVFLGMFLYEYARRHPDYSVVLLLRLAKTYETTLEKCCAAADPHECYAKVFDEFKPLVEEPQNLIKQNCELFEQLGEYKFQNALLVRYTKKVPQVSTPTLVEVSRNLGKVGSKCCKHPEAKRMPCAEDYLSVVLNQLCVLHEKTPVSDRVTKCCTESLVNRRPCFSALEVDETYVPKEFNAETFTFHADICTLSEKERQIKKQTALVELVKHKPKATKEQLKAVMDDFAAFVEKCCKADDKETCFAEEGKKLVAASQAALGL

SMILES	inhibition of glycation (spectrofluorimetric method) (albumin [1])	glycaemia [2]	influence on glycaemia [2]	number of AGE-positive glomeruli (AGEs)	severity of changes in glomeruli (AGEs)	inhibition of protein glycation (mass spectrometry method) (albumin [3]; 5 mM, albumin 50 mg/ml, glucose 0.5 M, 4 weeks, compared to mass of albumin incubated with glucose alone)	addition of glucose moieties to albumin (albumin [3]; in vitro model, FIG. 1, strength comparable to aminoguanidine)
Cl.N=C(N)NN [aminoguanidine, aminoguanidine hydrochloride]	67%	–	–	–	–	–	–
NC(=O)CN1CCCC1=O [tested compound, 2-(2-oxo-1-pyrrolidin-1-yl) acetamide]	45%	429 ± 65.0 mg/dL	did not influence glycaemia	significantly reduced	significantly reduced	33%	inhibited dose-dependently
